Reference: US11319289B2, “5-hydroxy pyridine-based compound for use as P2X1 and P2X3 receptor antagonist and pharmaceutical composition comprising same” (GWANGJU INSTITUTE OF SCIENCE AND TECHNOLOGY, priority 2017, dated 2022)
Several values for one entry are separate records, joined by “and”; a condition that tells them apart may be missing. Equal values may be shown once.

What was measured:
Format in all cases: cell-based
[1] = target: T1, mouse P2X1 receptor (mP2X1) (Mus musculus, UniProt P51576); experiment: Two-electrode voltage clamp assay, recombinant mP2X1 receptor in Xenopus oocytes; settings: 2 μM ATP; for mP2X1 % inhibitory effect at 10 μM / inhibition at 10 µM: 10 μM compound, mean±SEM n≥3 (footnote c); for inhibition at 10 µM: read-out: mP2X1 % inhibitory effect at 10 μM
T1 construct: expressed in transfected cells; host or cells: Xenopus oocytes (cRNA microinjection)
T1 sequence (P51576 1-399): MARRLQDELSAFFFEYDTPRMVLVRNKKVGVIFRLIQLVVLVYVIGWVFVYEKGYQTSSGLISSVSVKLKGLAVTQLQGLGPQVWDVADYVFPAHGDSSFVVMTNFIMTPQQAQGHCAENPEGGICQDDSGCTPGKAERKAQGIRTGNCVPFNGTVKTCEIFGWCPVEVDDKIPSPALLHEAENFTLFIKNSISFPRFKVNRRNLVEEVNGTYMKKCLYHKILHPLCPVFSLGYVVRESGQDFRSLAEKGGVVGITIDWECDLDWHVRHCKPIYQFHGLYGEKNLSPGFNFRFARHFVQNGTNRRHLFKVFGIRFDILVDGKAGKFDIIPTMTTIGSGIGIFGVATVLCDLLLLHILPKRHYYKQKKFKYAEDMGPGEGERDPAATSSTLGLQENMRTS
Description: (§1) 1-1. Two-Electrode Voltage Clamp Assay for Recombinant mP2X1 and hP2X3 Receptors
(§2) Xenopus oocytes were isolated and incubated with 270 U/mg of collagenase at 23 to 24° C. for 1.5 hours. Defolliculated oocytes were kept in Barth's solution at 18° C. After 1 day, the defolliculated oocytes were each microinjected cytosolically with mP2X1 and human P2X3 receptor cRNA ([…], 1 μg/mL), incubated for 24 hours at 18° C. in Barth's solution. The cRNA-injected oocytes were kept for 12 days at 4° C. ATP-activated membrane currents (Vh=−70 mV) were recorded from the cRNA-injected oocytes using the two-electrode voltage clamp technique (Axoclamp 2B amplifier). Voltage recording ([…] tip resistance) and current-recording microelectrodes (5 MΩ tip resistance) were filled with 3.0 M KCl. Oocytes were placed in an electrophysiological chamber continuously superfused with Ringer's solution (5 mL/min, at 18° C.) containing 110 mM NaCl, 2.5 mM KCl, 5 mM HEPES and 1.8 mM BaCl2, with pH adjusted to 7.5. To induce an evoked current, 2 μM ATP was superfused for 60 to 120 seconds and then washed for 20 min. For data analysis, the ATP-evoked current was normalized at pH 7.5. The compounds were introduced to the fixed oocytes 20 minutes prior to ATP exposure in the electrophysiological chamber. IC50 values (the concentration of the compound required to inhibit the ATP response by 50%) were determined by Hill plots designed using the Chemical Formula: log(I/Imax−1), where I is the current evoked by ATP in the presence of an antagonist. Data are presented as mean±SEM (n≥3) from different batches of oocytes.
(§3) In order to investigate the structure-activity relationship (SAR) of the compounds synthesized in the present invention, the antagonistic activity was evaluated by a two-electrode voltage clamp (TEVC) assay in Xenopus oocytes expressing the recombinant mP2X1 or hP2X3, respectively. The hP2X7R antagonistic activity was assessed using an ethidium ion accumulation assay in human HEK293 cells stably expressing the recombinant human P2X7R.

[2] = target: T2, human P2X7 receptor (hP2X7) (Homo sapiens, UniProt Q99572); experiment: Ethidium bromide accumulation assay in hP2X7-expressing HEK293 cells; settings: for hP2X7 % inhibition of ethidium bromide accumulation: 10 μM compound with BzATP
T2 construct: expressed in transfected cells
T2 sequence (Q99572 1-595): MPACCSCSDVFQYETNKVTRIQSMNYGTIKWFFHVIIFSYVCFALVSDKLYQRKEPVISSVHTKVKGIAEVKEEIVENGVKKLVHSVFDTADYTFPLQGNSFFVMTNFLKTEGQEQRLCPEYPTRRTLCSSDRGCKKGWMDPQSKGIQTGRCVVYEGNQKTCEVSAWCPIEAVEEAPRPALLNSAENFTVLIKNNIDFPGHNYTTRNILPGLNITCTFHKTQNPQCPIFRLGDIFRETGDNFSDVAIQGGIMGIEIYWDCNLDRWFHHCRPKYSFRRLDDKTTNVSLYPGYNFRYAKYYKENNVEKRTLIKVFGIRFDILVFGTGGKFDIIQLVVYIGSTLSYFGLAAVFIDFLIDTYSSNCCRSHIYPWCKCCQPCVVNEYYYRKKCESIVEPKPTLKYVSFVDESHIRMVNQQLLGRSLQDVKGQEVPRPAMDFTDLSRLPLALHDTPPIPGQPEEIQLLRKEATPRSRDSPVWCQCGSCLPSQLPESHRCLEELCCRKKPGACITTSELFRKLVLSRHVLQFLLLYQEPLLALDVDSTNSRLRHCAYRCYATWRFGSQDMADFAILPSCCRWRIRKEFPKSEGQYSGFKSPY
Description: 1-2. Ethidium Bromide Accumulation Assay in hP2X-Expressing HEK293 Cells
HEK293 cells that are stably transfected with the human P2X7 receptor (P2X7R) were kept under a humidified atmosphere of 5% CO2 at 37° C. in DMEM supplemented with 10% (v/v) FBS, 2 mM L-glutamine and antibiotics (50 U/mL penicillin and 50 μg/ml streptomycin). BzATP-induced pore formation was measured using a fluorescence plate reader by measuring cellular absorption of ethidium in the hP2X7-expressing HEK293 cells. The hP2X7-expressing HEK293 cells were washed once with an appropriate assay buffer, and the buffer was also removed before subsequent analysis. All studies were performed at room temperature and the final assay volume was 100 μL. The cells were resuspended at 2.5×10^6 cells/mL in assay buffers consisting of 10 mM HEPES, 5 mM N-methyl-D-glucamine, 5.6 mM KCl, 10 mM D-glucose and 0.5 mM CaCl2 (pH 7.4) and supplemented with 280 mM sucrose or 140 mM NaCl.
In order to determine the antagonistic activity of the 5-hydroxyl-pyridine derivatives of the present invention and the reference compound (AZD9056), these compounds were added to the cells at a concentration of 10 μM with BzATP without pre-incubation. The cells were incubated for 2 hours under a humidified atmosphere of 5% CO2 at 37° C., and the absorption of ethidium dye was observed by measuring fluorescence with a Bio-Tek instrument FL600 fluorescent plate reader (excitation wavelength of 530 nm and emission wavelength of 590 nm). The results are expressed as a percentage relative to the maximum cumulative amount of ethidium bromide when stimulated with BzATP alone.
as §3

[3] = target: T3, human P2X3 receptor (hP2X3) (Homo sapiens, UniProt P56373); experiment: Two-electrode voltage clamp assay, recombinant hP2X3 receptor in Xenopus oocytes; settings: for inhibition at 1 µM: 1 μM compound, 2 μM ATP, mean±SEM n≥3 (footnote b), read-out: hP2X3 % inhibitory effect at 1 μM; for inhibition at 1 µM / IC50: Xenopus oocytes; for IC50: 2 μM ATP-evoked current, mean±SEM n≥3 (footnote d)
T3 construct: expressed in transfected cells; host or cells: Xenopus oocytes (cRNA microinjection)
T3 sequence (P56373 1-397): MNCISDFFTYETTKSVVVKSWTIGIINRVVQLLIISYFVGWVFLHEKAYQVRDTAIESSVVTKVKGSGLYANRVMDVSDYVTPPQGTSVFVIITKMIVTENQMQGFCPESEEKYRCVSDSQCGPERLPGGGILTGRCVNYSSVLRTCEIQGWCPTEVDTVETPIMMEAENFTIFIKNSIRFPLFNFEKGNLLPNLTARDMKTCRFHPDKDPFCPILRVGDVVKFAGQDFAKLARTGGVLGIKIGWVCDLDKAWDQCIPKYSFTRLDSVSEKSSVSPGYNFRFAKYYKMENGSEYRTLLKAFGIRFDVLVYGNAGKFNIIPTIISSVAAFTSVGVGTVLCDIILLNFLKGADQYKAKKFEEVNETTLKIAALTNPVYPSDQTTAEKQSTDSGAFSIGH
Description: as §1, §2, §3

SMILES	mP2X1 % inhibitory effect at 10 μM [1]	hP2X7 % inhibition of ethidium bromide accumulation [2]	IC50 [3]	other results
COc1ccc(CCc2nc(C)c(O)c(C#N)c2C(=O)O)cc1 [Compound 16, 4-Cyano-5-hydroxy-2-(4-methoxyphenethyl)-6-methylnicotinic acid]	Inactive^c	Inactive	–	inhibition at 1 µM [3]: 33.3%
CCCc1nc(Cc2cccc(Oc3ccccc3)c2)c(C)c(CNS(C)(=O)=O)c1O [Compound 43, N-((3-Hydroxy-5-methyl-6-(3-phenoxybenzyl)-2-propylpyridin-4-yl)methyl)methanesulfonamide]	–	inactive	–	inhibition at 10 µM [1]: 43.1 ± 12.9%; inhibition at 1 µM [3]: < 50%
COc1ccc(CCc2nc(C(C)C)c(O)c(C(=O)O)c2C(=O)O)cc1 [Compound 13f, 5-Hydroxy-6-isopropyl-2-(4-methoxyphenethyl)pyridine-3,4-dicarboxylic acid]	–	inactive	466 nM	inhibition at 10 µM [1]: 37.3 ± 8.2%
CCCc1nc(CCc2ccc(OC)cc2)c(C)c(C(N)=O)c1O [Compound 23, 5-Hydroxy-2-[2-(4-methoxyphenyl)ethyl]-3-methyl-6-propyl-pyridine-4-carboxamide]	Inactive^c	inactive	709 nM	–
COc1ccc(CCc2nc(C)c(O)c(C(=O)O)c2C)cc1 [Compound 22b, 3-Hydroxy-6-(4-methoxyphenethyl)-2,5-dimethylisonicotinic acid]	Inactive^c	inactive	384 nM and 385 nM	–
COc1ccc(CCc2nc(C)c(O)c(C(=O)O)c2C(=O)O)cc1 [Compound 13b, 5-Hydroxy-2-(4-methoxyphenethyl)-6-methylpyridine-3,4-dicarboxylic acid]	–	Inactive	–	selectivity for hP2X3R to mP2X1R ([3]; hP2X3R versus mP2X1R): non-selective
COc1ccc(CCc2nc(C)c(O)c3c(=O)[nH][nH]c(=O)c23)cc1 [Compound 19, 8-Hydroxy-5-(4-methoxyphenethyl)-7-methyl-2,3-dihydropyrido[3,4-d]pyridazine-1,4-dione]	Inactive^c	inactive	–	inhibition at 1 µM [3]: 16.3%
CCCc1nc(Cc2cccc(Oc3ccccc3)c2)c(C)c(C#N)c1O [Compound 38, 3-Hydroxy-5-methyl-6-(3-phenoxybenzyl)-2-propylisonicotinonitrile]	inactive^c	inactive	–	inhibition at 1 µM [3]: < 50%
COc1ccc(CCc2cc(C(=O)O)c(O)c(C)n2)cc1 [Compound 22a, 3-Hydroxy-6-(4-methoxyphenethyl)-2-methylisonicotinic acid]	Inactive^c	Inactive	681 ± 98 nM	–
COc1ccc(CCc2nc(Cc3ccccc3)c(O)c(C(=O)O)c2C(=O)O)cc1 [Compound 13h, 6-Benzyl-5-hydroxy-2-(4-methoxyphenethyl)pyridine-3,4-dicarboxylic acid]	Inactive^c	Inactive	751 ± 83 nM	–
CCCc1nc(Cc2cccc(Oc3ccccc3)c2)c(C(=O)O)c(C(=O)O)c1O [Compound 27, 5-Hydroxy-2-(3-phenoxybenzyl)-6-propylpyridine-3,4-dicarboxylic acid]	–	Inactive	301 nM	inhibition at 10 µM [1]: 27.5 ± 4.5%
O=C(Nc1cc(C(=O)Nc2ccc(S(=O)(=O)O)cc2S(=O)(=O)O)cc(C(=O)Nc2ccc(S(=O)(=O)O)cc2S(=O)(=O)O)c1)Nc1cc(C(=O)Nc2ccc(S(=O)(=O)O)cc2S(=O)(=O)O)cc(C(=O)Nc2ccc(S(=O)(=O)O)cc2S(=O)(=O)O)c1 [NF-449, reference compound]	–	–	–	IC50 ([1]; read-out: mP2X1 (positive control, value in pM)): 307 ± 93 pM
O=C(NCC12CC3CC(CC(C3)C1)C2)c1cc(CCCNCCCO)ccc1Cl [AZD9056, reference compound]	–	–	–	IC50 ([2]; ethidium accumulation, read-out: hP2X7 (reference compound, value in nM)): 0.23 ± 0.11 nM
CCCc1nc(Cc2cccc(Oc3ccccc3)c2)c(C)c(CCC(=O)O)c1O [Compound 37, 3-(3-Hydroxy-5-methyl-6-(3-phenoxybenzyl)-2-propylpyridin-4-yl)propanoic acid]	inactive^c	inactive	–	–
